The values below come from ChEMBL document CHEMBL1201862, “PubChem BioAssay data set” (2004).

The target in test [1] is Glyceraldehyde-3-phosphate dehydrogenase (Homo sapiens, UniProt P04406).
Test [2] has as its target T1, Dual specificity protein phosphatase 6 (Rattus norvegicus, UniProt Q64346).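 Also: confirmatory in vitro dose-response testing of MKP-3 inhibition; recombinant His-tagged MKP-3 made in E. coli BL21 with OMFP substrate.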
T1 sequence (Q64346 whole entry): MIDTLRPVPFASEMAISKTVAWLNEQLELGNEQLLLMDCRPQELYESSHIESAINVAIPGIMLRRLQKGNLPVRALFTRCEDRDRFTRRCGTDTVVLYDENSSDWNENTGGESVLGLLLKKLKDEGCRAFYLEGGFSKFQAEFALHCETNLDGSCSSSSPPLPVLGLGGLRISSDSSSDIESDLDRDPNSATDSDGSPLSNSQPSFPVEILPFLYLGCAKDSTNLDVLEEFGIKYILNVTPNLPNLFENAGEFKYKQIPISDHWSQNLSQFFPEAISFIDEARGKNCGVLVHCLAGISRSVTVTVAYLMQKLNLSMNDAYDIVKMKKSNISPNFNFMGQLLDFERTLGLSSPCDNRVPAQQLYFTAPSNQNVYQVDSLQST
It counts as functional.

In test [3] the target is T2, Protein skinhead-1 (Caenorhabditis elegans, UniProt P34707).
T2 sequence (P34707 whole entry): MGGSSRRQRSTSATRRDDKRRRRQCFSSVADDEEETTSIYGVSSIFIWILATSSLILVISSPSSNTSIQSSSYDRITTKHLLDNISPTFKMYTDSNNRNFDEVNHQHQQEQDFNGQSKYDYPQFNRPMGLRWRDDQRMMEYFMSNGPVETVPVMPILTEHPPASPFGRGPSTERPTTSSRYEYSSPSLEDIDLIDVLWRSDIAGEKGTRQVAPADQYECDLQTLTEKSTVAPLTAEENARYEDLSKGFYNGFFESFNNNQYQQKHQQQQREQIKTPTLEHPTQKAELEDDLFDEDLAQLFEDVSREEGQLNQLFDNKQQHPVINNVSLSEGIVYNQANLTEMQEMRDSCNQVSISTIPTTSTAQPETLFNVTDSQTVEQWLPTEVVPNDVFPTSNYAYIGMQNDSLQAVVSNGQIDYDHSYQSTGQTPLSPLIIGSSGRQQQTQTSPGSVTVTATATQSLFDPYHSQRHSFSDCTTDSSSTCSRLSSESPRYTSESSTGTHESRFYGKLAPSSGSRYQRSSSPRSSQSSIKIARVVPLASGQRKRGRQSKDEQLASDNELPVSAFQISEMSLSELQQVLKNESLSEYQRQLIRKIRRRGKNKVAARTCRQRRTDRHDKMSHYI
Type of test: functional.

Test [4] has as its target Proto-oncogene tyrosine-protein kinase receptor Ret (Homo sapiens, UniProt P07949). Type of test: functional.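 Also: measured within a kinome-wide profiling panel, RET as the panel member.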
Test [5] addresses Tyrosine-protein kinase receptor TYRO3 (Homo sapiens, UniProt Q06418). It counts as functional.
The target of test [6] is Death-associated protein kinase 3 (Homo sapiens, UniProt O43293). Type of test: functional.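 Also: measured as one member of a kinome-wide profiling panel.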
The target of test [7] is Receptor tyrosine-protein kinase erbB-2 (Homo sapiens, UniProt P04626). In words: Navigating the Kinome. Panel member name: ERBB2. It counts as functional.
Test [8] deals with Mitogen-activated protein kinase kinase kinase kinase 5 (Homo sapiens, UniProt Q9Y4K4). It counts as functional.
Test [9] deals with Serine/threonine-protein kinase DCLK1 (Homo sapiens, UniProt O15075). Type of test: functional.
Test [10] deals with Lymphokine-activated killer T-cell-originated protein kinase (Homo sapiens, UniProt Q96KB5). Type of test: functional.
Test [11] has as its target Serine/threonine-protein kinase MRCK alpha (Homo sapiens, UniProt Q5VT25). It counts as functional.
Test [12] concerns the target SUMO-activating enzyme (Homo sapiens, UniProt Q9UBT2). In words: blockers of UBC9-mediated SUMO conjugation – biochemical, AlphaScreen, SUMOylation inhibitor project, confirmation (AID 2018). It counts as functional. A general note: Bead proximity is the source of the signal in Alpha formats.
The target in test [13] is T3, Hexokinase-1 (Homo sapiens, UniProt P19367).
T3 sequence (P19367 whole entry): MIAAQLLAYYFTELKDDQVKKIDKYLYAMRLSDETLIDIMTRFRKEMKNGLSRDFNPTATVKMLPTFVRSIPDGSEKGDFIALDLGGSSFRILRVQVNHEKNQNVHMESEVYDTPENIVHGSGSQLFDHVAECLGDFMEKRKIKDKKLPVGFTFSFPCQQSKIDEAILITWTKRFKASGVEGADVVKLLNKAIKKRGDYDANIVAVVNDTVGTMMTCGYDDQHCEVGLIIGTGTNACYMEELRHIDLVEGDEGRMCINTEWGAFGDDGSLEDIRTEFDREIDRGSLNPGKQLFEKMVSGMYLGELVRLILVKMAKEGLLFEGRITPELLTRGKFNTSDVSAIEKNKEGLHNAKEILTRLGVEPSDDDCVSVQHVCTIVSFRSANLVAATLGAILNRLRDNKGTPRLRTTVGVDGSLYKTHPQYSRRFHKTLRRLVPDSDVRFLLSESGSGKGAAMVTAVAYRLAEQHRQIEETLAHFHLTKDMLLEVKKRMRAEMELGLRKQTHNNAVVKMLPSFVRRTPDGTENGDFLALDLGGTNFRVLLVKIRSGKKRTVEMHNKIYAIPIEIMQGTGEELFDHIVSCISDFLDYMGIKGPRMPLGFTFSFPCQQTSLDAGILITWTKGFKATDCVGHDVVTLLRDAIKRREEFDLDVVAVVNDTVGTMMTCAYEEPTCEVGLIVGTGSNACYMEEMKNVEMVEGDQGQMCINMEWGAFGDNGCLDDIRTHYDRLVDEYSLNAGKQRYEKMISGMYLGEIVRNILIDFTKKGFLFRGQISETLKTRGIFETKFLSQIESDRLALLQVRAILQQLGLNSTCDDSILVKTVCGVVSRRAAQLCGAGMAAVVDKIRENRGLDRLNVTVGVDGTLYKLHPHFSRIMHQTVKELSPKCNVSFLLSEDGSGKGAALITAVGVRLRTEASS
In words: hexokinase 1 activity inhibitors, potency – biochemical, set 2, resazurin fluorescence coupled readout, selectivity assay for HKDC1 inhibitor project, SAR follow-up (AID 588356). It counts as functional. A general note: The colour change of resazurin is a common sign of viable cells or microbes.

The target in test [14] is T4, Caspase-6 (Homo sapiens, UniProt P55212).
T4 sequence (P55212 whole entry): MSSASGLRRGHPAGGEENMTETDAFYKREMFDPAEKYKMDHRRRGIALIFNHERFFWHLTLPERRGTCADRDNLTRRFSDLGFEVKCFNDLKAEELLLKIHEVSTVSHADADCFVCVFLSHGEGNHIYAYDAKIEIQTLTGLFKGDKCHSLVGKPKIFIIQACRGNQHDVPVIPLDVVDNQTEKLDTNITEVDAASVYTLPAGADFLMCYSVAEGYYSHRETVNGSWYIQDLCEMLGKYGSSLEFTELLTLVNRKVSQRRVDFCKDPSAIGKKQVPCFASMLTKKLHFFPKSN
As to the kind of experiment: inhibition of CASP6 peptide cleavage – biochemical, VEID-R110 fluorescence, cherry-pick, dose response (AID 720632).

Calls of active or inactive are those of the source.

Chain of Serine/threonine-protein kinase MRCK alpha (Q5VT25 whole entry): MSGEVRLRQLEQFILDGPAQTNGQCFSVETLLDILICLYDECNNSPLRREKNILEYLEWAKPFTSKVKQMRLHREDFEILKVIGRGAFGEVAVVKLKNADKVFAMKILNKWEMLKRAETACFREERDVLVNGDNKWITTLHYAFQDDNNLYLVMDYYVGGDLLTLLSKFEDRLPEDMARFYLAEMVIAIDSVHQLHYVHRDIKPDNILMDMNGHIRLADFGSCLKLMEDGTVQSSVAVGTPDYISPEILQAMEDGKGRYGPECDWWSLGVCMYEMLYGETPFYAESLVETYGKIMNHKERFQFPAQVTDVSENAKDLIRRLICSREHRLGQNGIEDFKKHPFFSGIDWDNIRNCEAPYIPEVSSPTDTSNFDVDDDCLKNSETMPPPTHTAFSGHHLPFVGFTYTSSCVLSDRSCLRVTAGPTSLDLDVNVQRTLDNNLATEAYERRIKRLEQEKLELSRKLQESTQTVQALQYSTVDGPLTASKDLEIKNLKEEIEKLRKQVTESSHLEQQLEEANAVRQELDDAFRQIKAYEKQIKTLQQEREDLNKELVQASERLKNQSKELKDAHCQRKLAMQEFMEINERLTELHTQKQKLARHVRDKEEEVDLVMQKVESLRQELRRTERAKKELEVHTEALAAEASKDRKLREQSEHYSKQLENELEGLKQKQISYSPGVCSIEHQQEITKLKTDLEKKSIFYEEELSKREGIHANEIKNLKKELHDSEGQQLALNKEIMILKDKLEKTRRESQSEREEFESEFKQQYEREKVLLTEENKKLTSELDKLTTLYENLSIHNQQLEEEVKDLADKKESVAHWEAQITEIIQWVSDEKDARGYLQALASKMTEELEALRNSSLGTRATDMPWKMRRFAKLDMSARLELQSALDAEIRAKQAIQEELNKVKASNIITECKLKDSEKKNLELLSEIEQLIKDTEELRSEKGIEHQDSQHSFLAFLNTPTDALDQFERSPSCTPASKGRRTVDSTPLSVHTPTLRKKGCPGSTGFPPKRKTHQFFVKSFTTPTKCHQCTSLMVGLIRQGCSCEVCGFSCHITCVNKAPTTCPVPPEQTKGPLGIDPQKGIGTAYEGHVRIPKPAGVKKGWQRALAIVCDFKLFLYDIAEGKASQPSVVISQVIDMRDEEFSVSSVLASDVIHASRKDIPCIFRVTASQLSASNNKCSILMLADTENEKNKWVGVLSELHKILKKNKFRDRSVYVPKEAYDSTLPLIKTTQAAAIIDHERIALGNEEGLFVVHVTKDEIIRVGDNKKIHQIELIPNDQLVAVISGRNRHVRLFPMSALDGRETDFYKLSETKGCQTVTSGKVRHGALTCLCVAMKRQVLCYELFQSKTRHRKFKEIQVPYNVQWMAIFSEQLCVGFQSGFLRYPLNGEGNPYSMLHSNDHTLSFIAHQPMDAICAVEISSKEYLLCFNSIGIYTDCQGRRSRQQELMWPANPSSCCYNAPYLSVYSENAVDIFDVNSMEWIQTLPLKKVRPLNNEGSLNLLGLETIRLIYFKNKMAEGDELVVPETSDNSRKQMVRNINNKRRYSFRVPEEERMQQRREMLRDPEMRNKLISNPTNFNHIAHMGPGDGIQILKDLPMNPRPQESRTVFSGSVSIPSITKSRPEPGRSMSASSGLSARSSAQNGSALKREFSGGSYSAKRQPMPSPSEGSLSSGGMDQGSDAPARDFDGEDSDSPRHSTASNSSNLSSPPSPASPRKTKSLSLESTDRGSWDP
Chain of Proto-oncogene tyrosine-protein kinase receptor Ret (P07949 whole entry): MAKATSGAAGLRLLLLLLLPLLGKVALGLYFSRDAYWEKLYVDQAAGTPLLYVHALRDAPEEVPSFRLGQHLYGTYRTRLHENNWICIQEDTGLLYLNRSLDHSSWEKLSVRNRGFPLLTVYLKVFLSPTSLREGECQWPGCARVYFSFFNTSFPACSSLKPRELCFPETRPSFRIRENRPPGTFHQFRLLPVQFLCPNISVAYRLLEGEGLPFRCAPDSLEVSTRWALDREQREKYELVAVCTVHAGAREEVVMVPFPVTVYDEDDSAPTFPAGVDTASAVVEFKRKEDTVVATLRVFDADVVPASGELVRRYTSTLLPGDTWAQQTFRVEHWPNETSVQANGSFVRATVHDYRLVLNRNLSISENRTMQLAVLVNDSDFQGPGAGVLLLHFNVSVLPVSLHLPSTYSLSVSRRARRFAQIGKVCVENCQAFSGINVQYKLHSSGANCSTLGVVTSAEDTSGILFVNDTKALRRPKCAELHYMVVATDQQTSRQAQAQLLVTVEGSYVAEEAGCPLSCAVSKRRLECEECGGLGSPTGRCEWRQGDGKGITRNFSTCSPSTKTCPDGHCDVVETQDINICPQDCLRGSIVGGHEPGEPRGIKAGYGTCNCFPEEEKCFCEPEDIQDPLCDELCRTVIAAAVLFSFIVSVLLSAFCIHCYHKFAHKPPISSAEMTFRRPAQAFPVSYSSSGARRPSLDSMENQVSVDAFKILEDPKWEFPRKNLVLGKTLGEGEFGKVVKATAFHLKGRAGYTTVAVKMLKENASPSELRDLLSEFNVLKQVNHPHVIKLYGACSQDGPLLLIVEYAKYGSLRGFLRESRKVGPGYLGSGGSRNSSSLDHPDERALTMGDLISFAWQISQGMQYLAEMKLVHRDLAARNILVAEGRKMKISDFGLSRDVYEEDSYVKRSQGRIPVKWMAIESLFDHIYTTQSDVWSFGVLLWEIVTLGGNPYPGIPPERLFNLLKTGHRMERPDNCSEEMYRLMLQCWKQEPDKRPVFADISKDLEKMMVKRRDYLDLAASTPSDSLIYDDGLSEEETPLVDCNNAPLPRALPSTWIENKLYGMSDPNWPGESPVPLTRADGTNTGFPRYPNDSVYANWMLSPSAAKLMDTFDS
Chain of Receptor tyrosine-protein kinase erbB-2 (P04626 whole entry): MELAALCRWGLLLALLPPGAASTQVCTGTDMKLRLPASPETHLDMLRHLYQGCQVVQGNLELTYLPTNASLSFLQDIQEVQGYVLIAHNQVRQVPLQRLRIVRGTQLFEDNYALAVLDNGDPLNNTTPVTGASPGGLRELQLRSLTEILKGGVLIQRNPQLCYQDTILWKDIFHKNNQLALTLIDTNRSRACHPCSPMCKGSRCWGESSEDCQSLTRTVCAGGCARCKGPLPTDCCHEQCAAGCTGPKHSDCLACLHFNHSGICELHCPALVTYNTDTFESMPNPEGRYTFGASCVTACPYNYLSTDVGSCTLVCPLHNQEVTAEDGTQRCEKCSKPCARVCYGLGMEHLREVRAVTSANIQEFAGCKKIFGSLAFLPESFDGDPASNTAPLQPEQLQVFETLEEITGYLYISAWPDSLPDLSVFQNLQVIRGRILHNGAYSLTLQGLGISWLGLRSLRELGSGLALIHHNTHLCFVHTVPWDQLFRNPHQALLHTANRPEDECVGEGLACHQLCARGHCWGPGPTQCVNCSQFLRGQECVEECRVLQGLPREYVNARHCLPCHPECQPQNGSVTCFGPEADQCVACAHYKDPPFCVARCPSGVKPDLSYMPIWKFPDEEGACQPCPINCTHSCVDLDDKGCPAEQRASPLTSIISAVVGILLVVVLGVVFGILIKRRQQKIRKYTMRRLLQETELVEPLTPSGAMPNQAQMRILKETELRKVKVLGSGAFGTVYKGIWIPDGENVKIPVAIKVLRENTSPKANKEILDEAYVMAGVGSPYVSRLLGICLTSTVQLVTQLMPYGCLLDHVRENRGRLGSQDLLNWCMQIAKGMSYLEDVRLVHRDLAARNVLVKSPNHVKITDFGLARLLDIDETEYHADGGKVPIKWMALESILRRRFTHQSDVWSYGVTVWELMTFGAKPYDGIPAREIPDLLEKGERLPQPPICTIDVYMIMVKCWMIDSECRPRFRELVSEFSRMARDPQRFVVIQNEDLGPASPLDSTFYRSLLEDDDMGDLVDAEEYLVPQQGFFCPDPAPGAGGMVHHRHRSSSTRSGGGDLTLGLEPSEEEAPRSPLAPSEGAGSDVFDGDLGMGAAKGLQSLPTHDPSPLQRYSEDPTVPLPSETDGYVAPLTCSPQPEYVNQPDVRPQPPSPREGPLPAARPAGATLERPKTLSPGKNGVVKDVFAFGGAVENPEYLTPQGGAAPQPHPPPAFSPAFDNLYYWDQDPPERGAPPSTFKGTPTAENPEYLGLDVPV
Chain of SUMO-activating enzyme (Q9UBE0 whole entry): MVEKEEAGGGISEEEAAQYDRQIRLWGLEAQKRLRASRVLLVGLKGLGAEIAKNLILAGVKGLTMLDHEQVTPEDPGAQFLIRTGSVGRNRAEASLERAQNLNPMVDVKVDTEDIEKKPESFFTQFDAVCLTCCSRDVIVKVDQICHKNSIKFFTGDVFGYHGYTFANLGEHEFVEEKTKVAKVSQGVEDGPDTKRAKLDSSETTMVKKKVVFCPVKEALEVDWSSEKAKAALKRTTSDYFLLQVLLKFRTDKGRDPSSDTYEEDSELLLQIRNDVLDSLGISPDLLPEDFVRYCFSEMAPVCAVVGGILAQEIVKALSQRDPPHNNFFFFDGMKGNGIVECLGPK
Chain of SUMO-activating enzyme (Q9UBT2 whole entry): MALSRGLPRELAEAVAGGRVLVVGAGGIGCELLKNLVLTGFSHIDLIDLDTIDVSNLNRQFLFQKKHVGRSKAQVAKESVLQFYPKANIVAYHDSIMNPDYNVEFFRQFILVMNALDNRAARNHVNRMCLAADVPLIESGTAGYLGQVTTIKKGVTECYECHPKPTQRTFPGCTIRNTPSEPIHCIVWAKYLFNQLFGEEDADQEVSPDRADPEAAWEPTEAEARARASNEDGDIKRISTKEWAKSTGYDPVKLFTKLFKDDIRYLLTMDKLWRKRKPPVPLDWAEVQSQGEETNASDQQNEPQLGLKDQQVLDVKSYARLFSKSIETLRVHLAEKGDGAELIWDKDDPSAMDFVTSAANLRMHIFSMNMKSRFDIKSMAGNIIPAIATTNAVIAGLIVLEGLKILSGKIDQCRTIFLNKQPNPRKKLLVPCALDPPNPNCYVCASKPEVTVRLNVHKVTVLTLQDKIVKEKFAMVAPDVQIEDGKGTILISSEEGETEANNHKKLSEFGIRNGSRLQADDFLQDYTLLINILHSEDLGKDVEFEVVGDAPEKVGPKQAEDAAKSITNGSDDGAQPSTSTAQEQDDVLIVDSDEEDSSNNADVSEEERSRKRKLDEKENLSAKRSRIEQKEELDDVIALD

In the case of `O=C(O)C1Nc2c(O)cc(Cl)c([N+](=O)[O-])c2C2C=CCC12` (stereo not given), the results for the IC50 in [1] and in [2] were 37.8 µM (active) and 35.4 µM (active), respectively.

For the compound `Clc1ccc2nc(-c3ccc(Br)s3)cn2c1`, the IC50 in test [3] is 57.5 µM (inactive).

Regarding `Cc1n[nH]c2ccc(-c3cncc(OCC(N)Cc4cccc(Cl)c4)c3)cc12` (stereo not given), the Ki is 1 µM (active) in test [4]; > 2 µM (inactive) in test [5]; 79.4 nM (active) in test [6]; > 1.58 µM (inactive) in test [7]; 251 nM (active) in [8]; 3.16 µM (active) in [9]. Besides, the Ki is 2.51 µM (active) in test [10] and 7.94 nM (active) in test [11]. In [11], this compound returned a pKi of 8.1.

On to `CC(=O)NC1C(=O)N(CCN2CCOCC2)c2ccc(F)cc21` (stereo not given), for which the figures for the IC50 in test [12] and in [13] were 5.82 µM (active) and > 80 µM (inactive), respectively. Also, the AC50 in test [14] is 16 µM (active).

The IC50 is the concentration at which inhibition is half-maximal. What is called Ki is the equilibrium dissociation constant of an inhibitor or competing ligand from its target. By pKi is commonly meant −log10 of the Ki, conventionally taken in molar units. A lower pKi goes with a large Ki. As a reminder, the AC50 is the concentration at which the activity in the assay is half-maximal.
